These results are taken from patent publication US8470527B2, “Method of inhibiting HIV-1 replication by administering modified GP41 C34 peptide derivatives with enhanced pharmacological properties” (Frontier Biotechnologies, Co., Ltd., priority 2002, dated 2013).

Where two headings read alike, the source gives them in different places.

The nature of data set [1]: Cytotoxicity in PBMCs by MTS (secondary cytotoxicity assay, high-test concentration 25 μM). The format is cell-based. The note with it: human PBMCs, MTS cell viability; modified peptides conjugated with HSA; FB005, FB006 unmodified; read-out: TC50 (50% cytotoxicity drug concentration). Here is the method:
For the standard PBMC assay, PHA-P stimulated cells from at least two normal donors were pooled, diluted in fresh medium to a final concentration of 1×10^6 cells/mL, and plated in the interior wells of a 96 well round bottom microplate at 50 μL/well (5×10^4 cells/well). Each plate contains virus/cell control wells (cells plus virus), experimental wells (drug plus cells plus virus) and compound control wells ([…], necessary for MTS monitoring of cytotoxicity). Since HIV-1 is not cytopathic to PBMCs, this allows the use of the same assay plate for both antiviral activity and cytotoxicity measurements. Test drug dilutions were prepared at a 2× concentration in microtiter tubes and 100 μL of each concentration was placed in appropriate wells using the standard format. 50 μL of a predetermined dilution of virus stock was placed in each test well (final MOI≈0.1). The PBMC cultures were maintained for seven days following infection at 37° C., 5% CO2, after which cell-free supernatant samples were collected for analysis of reverse transcriptase activity and/or HIV p24 content. Following removal of supernatant samples, compound cytotoxicity was measured by addition of MTS to the plates for determination of cell viability. Wells were also examined microscopically and any abnormalities noted. […]

Data set [2] concerns HIV-1IIIB. Nature of the data set: Cellular anti-HIV assay in fresh human PBMC cultures (reverse transcriptase activity and/or p24 readout). The format is cell-based. Here is the method:
The four modified peptides FB006M, FB007M, FB010M, and FB010KM were conjugated to human serum albumin (HSA) by mixing prior to the antiviral test. The results appear in Table 8 below, where IC50 value is the 50% viral inhibition drug concentration, and TC50 value is the 50% cytotoxicity drug concentration.
Pretitered aliquots of HIV-1IIIB was removed from the freezer (−80° C.) and thawed rapidly to room temperature in a biological safety cabinet immediately before use.
Fresh human PBMCs were isolated from screened donors, seronegative for HIV and HBV (Interstate Blood Bank, Inc.; Memphis, Tenn.). Cells were pelleted/washed 2-3 times by low speed centrifugation and resuspension in PBS to remove contaminating platelets. The Leukophoresed blood was then diluted 1:1 with Dulbecco's phosphate buffered saline (PBS) and layered over 14 mL of Lymphocyte Separation Medium in a 50 mL centrifuge tube and then centrifuged for 30 minutes at 600×g. Banded PBMCs were gently aspirated from the resulting interface and subsequently washed 2× with PBS by low speed centrifugation. After the final wash, cells were enumerated by trypan blue exclusion and re-suspended at 1×10^7 cells/mL in RPMI 1640 supplemented with 15% Fetal Bovine Serum (FBS), 2 mM L-glutamine, 4 μg/mL Phytohemagglutinin (PHA-P, Sigma). The cells were allowed to incubate for 48-72 hours at 37° C. After incubation, PBMCs were centrifuged and resuspended in RPMI 1640 with 15% FBS, 2 mM L-glutamine, 100 U/mL penicillin, 100 μg/mL streptomycin, 10 μg/mL gentamycin, and 20 U/mL recombinant human IL-2 (R&D Systems, Inc). […]
For the standard PBMC assay, PHA-P stimulated cells from at least two normal donors were pooled, diluted in fresh medium to a final concentration of 1×10^6 cells/mL, and plated in the interior wells of a 96 well round bottom microplate at 50 μL/well (5×10^4 cells/well). […] Following removal of supernatant samples, compound cytotoxicity was measured by addition of MTS to the plates for determination of cell viability. […]

Where [3] appears, read: HIV-1IIIB in fresh human PBMCs, seven days, FB006M, FB007M, FB010M, FB010KM conjugated with HSA prior to test, FB005, FB006 unmodified peptide, read-out: IC50 (50% viral inhibition drug concentration).

“Ac-SLEQIWNNMTWEEWDREINNYTELIHELIEESQNQQEKNEQELL-NH2 [FB005]”: the CC50 at 7 days in data set [1] stood at 14300 nM. For the same substance, the IC50 in data set [2] (setting [3]) came to 0.93 nM.
As for “Ac-WEEWDREINNYTKLIHELIEESQNQQEKNEQELL-NH2 [FB006]”, in data set [1], the CC50 at 7 days is 15900 nM. The IC50 in data set [2] (FB006M and FB007M linked to serum albumin, read-out: IC50 (drug concentration for achieving 50% viral inhibition)) is 1.4 nM; in data set [2] (setting [3]) it was 1.41 nM.
